Measured values published in patent publication US11518754B2, “Radiolabeled pharmaceuticals and methods of making and using same” (YALE UNIVERSITY, priority 2017, dated 2022).

What was measured:
[1] = PET imaging studies in rhesus monkeys; conditions: rhesus monkey, in vivo, Distribution volume (VT), 1T model
Protocol: (§1) Experiments were performed in rhesus monkeys (Macaca mulatta). Rhesus monkeys were sedated using intramuscular (i.m.) injection of ketamine and glycopyrrolate approximately 2 hours before the PET scan and anesthesia was maintained with isoflurane (1.5%-2.5%) for the duration of the experiments. Baseline PET scans were obtained after intravenous (i.v.) injection of ^11C-3, ^18F-3, ^18F-4, ^18F-5, ^18F-10, ^18F-11, or ^18F-12.
(§2) Arterial blood samples were collected during the PET scans to calculate the plasma input function and to determine the unmetabolized parent fraction using the automatic column-switching HPLC system. Plasma free fraction (fp) was measured in triplicate using the ultrafiltration method.
(§3) PET scans of the brain were acquired using the FOCUS 220 PET scanner (Siemens Preclinical Solutions) with a reconstructed image resolution of approximately 1.5 mm. After a transmission scan, the radioligand was injected i.v. as a 3 min slow bolus by an infusion pump (PHD 22/2000; Harvard Apparatus). List-mode data were acquired for 120-180 min and binned into sinograms with an applicable number of frames. Scan data were reconstructed with a Fourier rebinning/filtered backprojection algorithm with corrections for attenuation, scanner normalization, radiation scatter, and randoms. Regions of interest were manually delineated on a single representative anatomic rhesus monkey MR image registered to a template image. The regions used in this study were amygdala, brain stem, caudate, centrum semiovale, cerebellum, cingulate cortex, frontal cortex, globus pallidus, insular cortex, nucleus accumbens, occipital cortex, pons, putamen, temporal cortex, and thalamus. Registration parameters were obtained to apply the regions of interest to individual PET scans, and regional time-activity curves were generated. Regional time-activity curves of the brain were analyzed with the 1-tissue-(1T) compartment model. Fit quality was compared with the 2-tissue model and the multilinear analysis method to calculate VT.
(§4) Typical injected radioactivity amount was 0.5-5 mCi per injection, with typical injected mass amount of 1-10 μg.
(§5) Specific binding to SV2A was further examined for ^11C-3, ^18F-3, and ^18F-11 in blocking studies, where levetiracetam or UCB-J ((R)-3) was i.v. infused before injection of the radiotracers.

SV2A = SV2A (Macaca mulatta, UniProt H9EQH8); assay: PET imaging studies in rhesus monkeys; conditions: for Binding potential (BPND): from VT, centrum semiovale as reference region; for time to SUV peak in gray matter regions: rhesus monkey brain after i.v. injection; for Displacement of radiotracer binding by levetiracetam: levetiracetam 30 mg/kg i.v. infused 60 or 90 min post injection of the radiotracer
Sequence of SV2A (H9EQH8 1-742): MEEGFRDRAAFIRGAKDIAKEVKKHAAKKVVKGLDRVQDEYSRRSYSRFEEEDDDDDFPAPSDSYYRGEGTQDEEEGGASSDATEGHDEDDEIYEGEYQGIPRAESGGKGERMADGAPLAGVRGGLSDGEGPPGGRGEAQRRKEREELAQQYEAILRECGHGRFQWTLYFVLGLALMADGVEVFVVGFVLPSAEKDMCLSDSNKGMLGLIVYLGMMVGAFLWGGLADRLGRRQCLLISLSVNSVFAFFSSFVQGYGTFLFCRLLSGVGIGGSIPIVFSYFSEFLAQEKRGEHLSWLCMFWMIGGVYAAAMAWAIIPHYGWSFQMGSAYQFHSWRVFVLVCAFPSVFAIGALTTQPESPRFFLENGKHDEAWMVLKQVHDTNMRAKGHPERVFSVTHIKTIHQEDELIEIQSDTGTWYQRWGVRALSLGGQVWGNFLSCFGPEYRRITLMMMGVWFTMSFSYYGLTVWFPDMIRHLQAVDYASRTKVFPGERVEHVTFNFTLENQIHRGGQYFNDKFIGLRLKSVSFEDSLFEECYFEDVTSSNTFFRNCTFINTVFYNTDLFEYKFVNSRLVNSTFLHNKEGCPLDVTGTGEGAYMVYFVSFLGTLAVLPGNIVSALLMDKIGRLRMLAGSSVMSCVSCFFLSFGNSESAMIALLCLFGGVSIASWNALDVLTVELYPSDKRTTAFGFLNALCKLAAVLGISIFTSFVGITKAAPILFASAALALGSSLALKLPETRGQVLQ
Protocol: as §1, §2, §3, §4, §5

[2] = Plasma free fraction (fp) by ultrafiltration method; type: in vitro ADME, rhesus monkeys (Macaca mulatta); conditions: plasma (from arterial blood samples), rhesus monkey plasma

| Structure (SMILES) | Kp ([1]; Amygdala) | Kp ([1]; Brainstem) | Kp ([1]; Caudate nucleus) | Kp ([1]; Centrum semiovale) | Kp ([1]; Cerebellum) | Kp ([1]; Cingulate cortex) | Kp ([1]; Frontal cortex) | Kp ([1]; Globus pallidus) | Kp ([1]; Hippocampus) | Kp ([1]; Insular cortex) | Kp ([1]; Nucleus accumbens) | Kp ([1]; Occipital cortex) | Kp ([1]; Pons) | Kp ([1]; Putamen) | Kp ([1]; Temporal cortex) | Kp ([1]; Thalamus) | Binding potential (BPND) (SV2A; Amygdala) | Binding potential (BPND) (SV2A; Brainstem) | Binding potential (BPND) (SV2A; Caudate nucleus) | Binding potential (BPND) (SV2A; Cerebellum) | further results |
| --- | --- | --- | --- | --- | --- | --- | --- | --- | --- | --- | --- | --- | --- | --- | --- | --- | --- | --- | --- | --- | --- |
| O=C1CC(c2cc(F)c(F)c(F)c2)CN1Cc1ccncc1F (stereo not drawn) [^18F-10, 1-((3-fluoropyridin-4-yl)methyl)-4-(3,4,5-trifluorophenyl)pyrrolidin-2-one] | 9.8 | 10.2 | 13.8 | 10.1 | 12.3 | 16 | 14.7 | 11.5 | 11.3 | 14.9 | 14.4 | 15.5 | 10.5 | 14 | 14 | 12 | −0.03 | 0.01 | 0.37 | 0.22 | Binding potential (BPND) (SV2A; Cingulate cortex): 0.59; Binding potential (BPND) (SV2A; Frontal cortex): 0.46; Binding potential (BPND) (SV2A; Globus pallidus): 0.14; Binding potential (BPND) (SV2A; Hippocampus): 0.12; Binding potential (BPND) (SV2A; Insular cortex): 0.48; Binding potential (BPND) (SV2A; Nucleus accumbens): 0.43; Binding potential (BPND) (SV2A; Occipital cortex): 0.53; Binding potential (BPND) (SV2A; Pons): 0.04; Binding potential (BPND) (SV2A; Putamen): 0.39; Binding potential (BPND) (SV2A; Temporal cortex): 0.39; Binding potential (BPND) (SV2A; Thalamus): 0.19; time to SUV peak in gray matter regions (SV2A): ≤ 10 min; fraction unbound [2]: 0.52 |
| Cc1cnccc1CN1CC(c2cccc(F)c2)CC1=O (stereo not drawn) [^18F-11, 4-(3-Fluorophenyl)-1-((3-methylpyridin-4-yl)methyl)pyrrolidin-2-one] | 8.7 ± 2.4 | 6.6 ± 2.9 | 13.2 ± 2.6 | 4.4 ± 1.5 | 10.8 ± 2.6 | 18.2 ± 2.2 | 17.4 ± 2.2 | 8.8 ± 1.8 | 10.7 ± 2.8 | 16.8 ± 2.6 | 16.4 ± 2.9 | 15.7 ± 2.7 | 6.4 ± 3.5 | 13.6 ± 2.3 | 14.7 ± 2.5 | 13.2 ± 2.1 | 1.05 ± 0.29 | 0.53 ± 0.42 | 2.29 ± 0.88 | 1.59 ± 0.76 | Binding potential (BPND) (SV2A; Cingulate cortex): 3.49 ± 1.52; Binding potential (BPND) (SV2A; Frontal cortex): 3.29 ± 1.40; Binding potential (BPND) (SV2A; Globus pallidus): 1.13 ± 0.61; Binding potential (BPND) (SV2A; Hippocampus): 1.58 ± 0.59; Binding potential (BPND) (SV2A; Insular cortex): 3.00 ± 1.21; Binding potential (BPND) (SV2A; Nucleus accumbens): 3.12 ± 1.26; Binding potential (BPND) (SV2A; Occipital cortex): 2.90 ± 1.50; Binding potential (BPND) (SV2A; Pons): 0.46 ± 0.51; Binding potential (BPND) (SV2A; Putamen): 2.21 ± 0.89; Binding potential (BPND) (SV2A; Temporal cortex): 2.63 ± 1.33; Binding potential (BPND) (SV2A; Thalamus): 2.18 ± 0.77; Displacement of radiotracer binding by levetiracetam (SV2A): reduced the binding of these tracers to a significant extent; Uptake of radiotracer in blocking studies (SV2A; levetiracetam (30 mg/kg) or UCB-J (150 μg/kg) i.v. 10 min before radiotracer injection): reduced to background levels; time to SUV peak in gray matter regions (SV2A): ≤ 10 min; fraction unbound [2]: 0.42 ± 0.02 |
| Cc1cnccc1CN1CC(c2cc(F)cc(F)c2)CC1=O (stereo not drawn) [^18F-5, 4-(3,5-Difluorophenyl)-1-((3-methylpyridin-4-yl)methyl)pyrrolidin-2-one] | 20.5 ± 6 | 15 ± 4 | 31.9 ± 4.8 | 8.3 ± 2.4 | 26.1 ± 6.5 | 45 ± 9.2 | 43 ± 8.1 | 19.3 ± 2.4 | 27.3 ± 4 | 42.3 ± 9.1 | 41.9 ± 7.8 | 39.3 ± 10.7 | 14.9 ± 4.1 | 32.8 ± 5.2 | 37.9 ± 9.4 | 32.7 ± 1.9 | 1.70 ± 1.51 | 0.59 ± 0.57 | 2.09 ± 1.37 | 2.16 ± 0.15 | Binding potential (BPND) (SV2A; Cingulate cortex): 4.49 ± 0.50; Binding potential (BPND) (SV2A; Frontal cortex): 4.26 ± 0.57; Binding potential (BPND) (SV2A; Globus pallidus): 1.04 ± 0.09; Binding potential (BPND) (SV2A; Hippocampus): 2.36 ± 0.51; Binding potential (BPND) (SV2A; Insular cortex): 4.16 ± 0.42; Binding potential (BPND) (SV2A; Nucleus accumbens): 3.09 ± 2.04; Binding potential (BPND) (SV2A; Occipital cortex): 3.75 ± 0.11; Binding potential (BPND) (SV2A; Pons): 0.80 ± 0.03; Binding potential (BPND) (SV2A; Putamen): 3.03 ± 0.55; Binding potential (BPND) (SV2A; Temporal cortex): 3.60 ± 0.22; Binding potential (BPND) (SV2A; Thalamus): 3.08 ± 0.96; Displacement of radiotracer binding by levetiracetam (SV2A): reduced the binding of these tracers to a significant extent; time to SUV peak in gray matter regions (SV2A): slower; fraction unbound [2]: 0.42 ± 0.03 |
